Tested on: male SD rats
Experiment: Measurement of urinary glucose excretion in rats
Format: in vivo, rat
Conditions: 10 mg/kg i.p. administered twice at an 8 hr interval, urine collected for 24 hr after first administration
Procedure: The pharmacological test of urinary glucose excretion in rat is described that follow.
Measurement of Urinary Glucose Excretion in Rats
20 mg of test compounds were dissolved in 10 mL saline containing 20% dimethylsulufoxide.
Test compound (10 mg/5 mL/kg, i.p.) was administered twice an 8 hr interval to male SD rats (6 weeks old, 3 animals/group). An equal volume of vehicle was given to the control group. Urine was collected for 24 hr after first administration in metabolic cages.
The urine was centrifuged and urine volume was measured. Glucose concentration (mg/dl) was assayed using Glucose CII test Wako (Wako Pure Chemicals, Japan). The amounts of glucose excretion during 24 hr was calculated from the following equation.
Glucose secretion (mg/24 hr)=(A×B)/100
(A; the urine volume, B; the glucose concentration)

SMILES | Urinary glucose excretion (mg/24 hr)
COc1cc(O)c(C(=O)/C=C/c2ccc3occc3c2)c(CC2OC(CO)C(O)C(O)C2O)c1 [Compound 1, 3-(Benzo[b]furan-5-yl)-1-(2′-β-D-glucopyranosylmethyl-6′-hydroxy-4′-methoxy)acrylophenone] | 4.1
COc1cc(O)c(C(=O)/C=C/c2ccc3occc3c2)cc1[C@@H]1O[C@H](CO)[C@@H](O)[C@H](O)[C@H]1O [Compound 3, 3-(Benzo[b]furan-5-yl)-3′-β-D-glucopyranosyl-6′-hydroxy-4′-methoxyacrylophenone] | 241
COC(=O)OC[C@H]1O[C@@H](c2cc(C(=O)/C=C/c3ccc4occc4c3)c(O)cc2OC)[C@H](O)[C@@H](O)[C@@H]1O [Compound 4, 3-(Benzo[b]furan-5-yl)-3′-(6-O-methoxycarbonyl-β-D-glucopyranosyl)-6′-hydroxy-4′-methoxy-acrylophenone] | 289
COC(=O)OCC1OC(c2cc(C(=O)CCc3ccc4occc4c3)c(O)cc2OC)C(O)C(O)C1O [Compound 5, 3-(Benzo[b]furan-5-yl)-3′-(6-O-methoxycarbonyl-β-D-glucopyranosyl)-6′-hydroxy-4′-methoxy-propiopenone] | 228
CCOc1cc(OCC)c(C2OC(CO)C(O)C(O)C2O)cc1C(=O)/C=C/c1ccc2occc2c1 (stereo not shown) [Compound 6] | 8.9
COc1cc(O)c(C(=O)CCc2ccc3occc3c2)cc1C1OC(CO)C(O)C(O)C1O (stereo not shown) [Compound 22] | 124

Tested on: not given
Experiment: not given
Conditions: not given

melting point [°C] | SMILES
66 to 71 | COc1cc(O)c(C(=O)CCc2ccc3[nH]ccc3c2)cc1C1OC(CO)C(O)C(O)C1O (stereo not shown) [Compound 30]
216 to 217 | COc1cc(O)c(C(=O)CCc2cc3ccccc3o2)cc1C1OC(CO)C(O)C(O)C1O (stereo not shown) [Compound 31]
71 to 73 | COc1cc(O)c(C(=O)/C=C/c2ccc3occc3c2)cc1C1OC(COC(=O)CCC(=O)O)C(O)C(O)C1O (stereo not shown) [Compound 42]
115 to 117 | COc1cc(O)c(C(=O)/C=C/c2ccc3occc3c2)cc1C1OC(C(=O)[O-])C(O)C(O)C1O.[Na+] [Compound 43, 3-(Benzo[b]furan-5-yl)-3′-(6-carboxysodium salt-β-D-glucopyranosyl)4′-methoxy-6′-hydroxy-acrylophenone]
177 to 179 | COc1cc(O)c(C(=O)/C=C/c2ccc3occc3c2)cc1C1OC(COS(=O)(=O)O)C(O)C(O)C1O [Compound 44, 3-(Benzo[b]furan-5-yl)-3′-(6-sulfonic acid-β-D-glucopyranosyl)-4′-methoxy-6′-hydroxyacrylophenone]
113 to 114 | COc1cc(O)c(C(=O)CCc2ccc3occc3c2)cc1C1OC(COC(=O)CCC(=O)O)C(O)C(O)C1O (stereo not shown) [Compound 47]
262 | COc1cc(O)c(C(=O)CCc2ccc3occc3c2)cc1C1OC(COC(=O)CCC(=O)[O-])C(O)C(O)C1O.[Na+] (stereo not shown) [Compound 48]
103 to 105 | Cc1cc(O)c(C(=O)/C=C/c2ccc3occc3c2)c(CC2OC(CO)C(O)C(O)C2O)c1 [Compound 51, 3-(Benzo[b]furan-5-yl)-1-[6-hydroxy-4-methyl-2-{(β-D-glucopyranos-1-yl)methyl}]acrylophenone]
85 to 87 | Cc1cc(O)c(C(=O)CCc2ccc3occc3c2)c(CC2OC(CO)C(O)C(O)C2O)c1 [Compound 52, 3-(Benzo[b]furan-5-yl)-1-[6-hydroxy-4-methyl-2-{(β-D-glucopyranos-1-yl)methyl}]propiophenone]
58 to 60 | COC(=O)OCC1OC(Cc2cc(C)cc(O)c2C(=O)CCc2ccc3occc3c2)C(O)C(O)C1O [Compound 53, 3-Benzo [b]furan-5-yl-1-(6-hydroxy-4-methyl-2-{[6-methoxycarbonyl-β-D-glucopyranos-1-yl]methyl})propiophenone]
227 to 228 | O=C(CCc1ccc(O)cc1)c1c(O)cc(O)cc1CC1OC(CO)C(O)C(O)C1O [Compound 54, 1-[2,4-Dihydroxy-6-{(β-D-glicopyranosyl)methyl}phenyl]-3-(4-hydroxyphenyl)propan-1-one]
80 to 83 | COc1cc(C)cc(CC2OC(CO)C(O)C(O)C2O)c1C(=O)/C=C/c1ccc2occc2c1 (stereo not shown) [Compound 55]
118 to 120 | COc1cc(C)cc(CC2OC(CO)C(O)C(O)C2O)c1C(=O)/C=C/c1ccc2occc2c1 (stereo not shown) [Compound 57]
199 to 201 | COC(=O)OCC1OC(Cc2cc(O)cc(O)c2C(=O)CCc2ccc(O)cc2)C(O)C(O)C1O (stereo not shown) [Compound 58]

The next lines start with the molecule.

SMILES | melting point [°C]
COc1cc(O)c(C(=O)/C=C/c2ccc3occc3c2)c(CC2OC(CO)C(O)C(O)C2O)c1 [Compound 1, 3-(Benzo[b]furan-5-yl)-1-(2′-β-D-glucopyranosylmethyl-6′-hydroxy-4′-methoxy)acrylophenone] | 135 to 136
COc1cc(OC)c(C2OC(CO)C(O)C(O)C2O)cc1C(=O)/C=C/c1ccc2occc2c1 (stereo not shown) [Compound 2] | 226 to 228
COc1cc(O)c(C(=O)/C=C/c2ccc3occc3c2)cc1[C@@H]1O[C@H](CO)[C@@H](O)[C@H](O)[C@H]1O [Compound 3, 3-(Benzo[b]furan-5-yl)-3′-β-D-glucopyranosyl-6′-hydroxy-4′-methoxyacrylophenone] | > 250
COC(=O)OC[C@H]1O[C@@H](c2cc(C(=O)/C=C/c3ccc4occc4c3)c(O)cc2OC)[C@H](O)[C@@H](O)[C@@H]1O [Compound 4, 3-(Benzo[b]furan-5-yl)-3′-(6-O-methoxycarbonyl-β-D-glucopyranosyl)-6′-hydroxy-4′-methoxy-acrylophenone] | 195 to 196
COC(=O)OCC1OC(c2cc(C(=O)CCc3ccc4occc4c3)c(O)cc2OC)C(O)C(O)C1O [Compound 5, 3-(Benzo[b]furan-5-yl)-3′-(6-O-methoxycarbonyl-β-D-glucopyranosyl)-6′-hydroxy-4′-methoxy-propiopenone] | 120 to 121
CCOc1cc(OCC)c(C2OC(CO)C(O)C(O)C2O)cc1C(=O)/C=C/c1ccc2occc2c1 (stereo not shown) [Compound 6] | 120 to 121
CCOc1cc(O)c(C(=O)/C=C/c2ccc3occc3c2)cc1C1OC(CO)C(O)C(O)C1O (stereo not shown) [Compound 7] | 189 to 190
Cc1cc(O)c(C(=O)/C=C/c2ccc3occc3c2)cc1C1OC(CO)C(O)C(O)C1O (stereo not shown) [Compound 8] | 228 to 229
COc1cc(C)c(C(=O)/C=C/c2ccc3occc3c2)cc1C1OC(CO)C(O)C(O)C1O (stereo not shown) [Compound 9] | 137 to 138
COc1cc(O)c(C(=O)/C=C/c2ccc(C)cc2)cc1C1OC(CO)C(O)C(O)C1O (stereo not shown) [Compound 10] | 181 to 183
COc1cc(O)c(C(=O)/C=C/c2ccsc2)cc1C1OC(CO)C(O)C(O)C1O (stereo not shown) [Compound 11] | 239 to 242
COc1cc(O)c(C(=O)/C=C/c2ccncc2)cc1C1OC(CO)C(O)C(O)C1O (stereo not shown) [Compound 12] | 183 to 185
COc1cc(O)c(C(=O)/C=C/c2ccc3ccccc3c2)cc1C1OC(CO)C(O)C(O)C1O (stereo not shown) [Compound 13] | 236 to 239
COc1cc(O)c(C(=O)/C=C/c2ccnc3ccccc23)cc1C1OC(CO)C(O)C(O)C1O (stereo not shown) [Compound 14] | 226 to 228
COc1cc(O)c(C(=O)/C=C/c2ccc3c(c2)CCC3)cc1C1OC(CO)C(O)C(O)C1O (stereo not shown) [Compound 15] | 245 to 248
COc1cc(O)c(C(=O)/C=C/c2ccc3occc3c2)c(OC)c1C1OC(CO)C(O)C(O)C1O (stereo not shown) [Compound 16] | 198 to 199
COc1cc(O)c(C(=O)/C=C/c2ccc3[nH]ccc3c2)cc1C1OC(CO)C(O)C(O)C1O (stereo not shown) [Compound 17] | 194 to 196
COc1cc(O)c(C(=O)/C=C/c2ccc3sccc3c2)cc1C1OC(CO)C(O)C(O)C1O (stereo not shown) [Compound 18] | 217 to 220
COc1cc(O)c(C(=O)/C=C/c2ccc3c(c2)CCO3)cc1C1OC(CO)C(O)C(O)C1O (stereo not shown) [Compound 19] | 276 to 279
COc1cc(O)c(C(=O)/C=C/c2cc3ccccc3o2)cc1C1OC(CO)C(O)C(O)C1O (stereo not shown) [Compound 20] | 256 to 257
COc1cc(O)c(C(=O)CCc2ccc3occc3c2)c(C[C@@H]2O[C@H](CO)[C@@H](O)[C@H](O)[C@H]2O)c1 [Compound 21, 3-(Benzo[b]furan-5-yl)-2′-β-D-glucopyranosylmethyl-6′-hydroxy-4′-methoxypropiophenone] | 103 to 105
COc1cc(O)c(C(=O)CCc2ccc3occc3c2)cc1C1OC(CO)C(O)C(O)C1O (stereo not shown) [Compound 22] | 226 to 228
COc1cc(OC)c(C2OC(CO)C(O)C(O)C2O)cc1C(=O)CCc1ccc2occc2c1 (stereo not shown) [Compound 23] | 112 to 113
CCOc1cc(OCC)c(C2OC(CO)C(O)C(O)C2O)cc1C(=O)CCc1ccc2occc2c1 (stereo not shown) [Compound 24] | 89 to 90
CCOc1cc(O)c(C(=O)CCc2ccc3occc3c2)cc1C1OC(CO)C(O)C(O)C1O (stereo not shown) [Compound 25] | 175 to 176
Cc1cc(O)c(C(=O)CCc2ccc3occc3c2)cc1C1OC(CO)C(O)C(O)C1O (stereo not shown) [Compound 26] | 191 to 192
COc1cc(C)c(C(=O)CCc2ccc3occc3c2)cc1C1OC(CO)C(O)C(O)C1O (stereo not shown) [Compound 27] | 118 to 119
COc1cc(O)c(C(=O)CCc2ccc3c(c2)CCC3)cc1C1OC(CO)C(O)C(O)C1O (stereo not shown) [Compound 28] | 194 to 196
COc1cc(O)c(C(=O)CCc2ccc3occc3c2)c(OC)c1C1OC(CO)C(O)C(O)C1O (stereo not shown) [Compound 29] | 131 to 132

Reference: patent US6627611B2, “C-glycosides and preparation of thereof as antidiabetic agents” (Kotobuki Pharmaceutical Co Ltd, priority 2000, dated 2003)
